Measurements: patent publication US20070243254A1, “NOVEL DRUG COMPOSITIONS AND DOSAGE FORMS OF TOPIRAMATE” (priority 2002, published 2007)
In brackets after ≈: the same amount, converted by molar mass. Where two headings read alike, the source gives them in different places.

Legend:
[1] = cited from earlier work
[2] = equilibrium solubility of topiramate in de-ionized water and aqueous surfactant solutions; assay type: physicochemical; details: for solubility: de-ionized water
Procedure: As defined herein, the solubility of a pharmaceutical agent is determined by adding the pharmaceutical agent to stirred or agitated de-ionized water maintained in a constant temperature bath at a temperature of 37° C. until no more pharmaceutical agent dissolves. The resulting solution saturated with the pharmaceutical agent is then filtered, typically under pressure through a 0.8-micron Millipore filter, and the concentration of the pharmaceutical agent in the solution is measured by any appropriate analytical method including gravimetric, ultraviolet spectrophometry, chromatography, and the like. The solubility of the pharmaceutical agent is measured at equilibrium.
A drug composition of the present invention was prepared as follows. Aqueous solutions of five surfactants were prepared. The selected surfactants were four grades of ethylene oxide/propylene oxide/ethylene oxide (LUTROL grades F127, F87, F108, and F68) and PEG-40 stearate (MYRJ 52). Solutions were made at concentrations of 1, 5, and 15 weight percent. The aqueous surfactant blends solutions were chilled as necessary to promote complete dissolution of the surfactant prior to drug solubility studies.
The aqueous surfactant solutions were equilibrated to constant temperature in a 37° C. water bath. Then, neat topiramate drug was added slowly with stirring in approximately 10 mg increments to the surfactant solutions until no more drug dissolved. A control sample of drug dissolved in de-ionized water without surfactant was included for comparison purposes. The resulting saturated solutions of drug were filtered through 0.8 micron filters and analyzed for drug concentration by refractive index chromatography. The resulting solubility values were plotted as a function of both surfactant concentration and the hydrophilic-lipophilic balance value of each surfactant. FIG. 6 was constructed from the solubility values obtained and HLB data for each surfactant utilized.

[3] = cited from earlier work; remark: listed apart in the source

Question: For `CC1(C)O[C@@H]2[C@@H](CO[C@@]3(COS(N)(=O)=O)OC(C)(C)O[C@@H]23)O1` [topiramate, 2,3:4,5-bis-O-(1-methylethylidene)-β-D-fructopyranose sulfamate], which “dose proportionality of pharmacokinetics” value ([1]; in vivo) is on record?
Answer: linear

Question: And the “effect of food on pharmacokinetics” value ([1]; in vivo)?
Answer: not significantly affected by food

Question: What about the excretion ([1]; in vivo) of the same compound?
Answer: excreted largely through the urine

Question: And the “mean elimination half life” value ([1]; in vivo)?
Answer: about 21 hours

Question: What about the metabolism ([1]; in vivo) of the same compound?
Answer: not extensively metabolized

Question: What about the “time to peak plasma drug concentrations” value ([1]; oral, immediate release dosage form) of the same compound?
Answer: approximately 2 hours

Question: And the “solubility in water in presence of surfactant” value ([2]; LUTROL F127, F87, F108, F68, MYRJ 52 at 1, 5, 15 weight percent, 37° C.)?
Answer: increased by each surfactant

Question: What about the solubility ([2]; water, thermodynamic from solid, without surfactant, 37° C., read-out: solubility in de-ionized water) of the same compound?
Answer: ~12 mg/mL (≈ 35.4 mM)

Question: What about the solubility ([2]; read-out: solubility of neat topiramate (range)) of the same compound?
Answer: 9.8 to 13 mg/mL (≈ 28.9 to 38.3 mM)

Question: And the “solubility in organic solvents” value ([3]; acetone, dimethylsulfoxide, ethanol)?
Answer: soluble in acetone, dimethylsulfoxide and ethanol

Question: What about the “solubility in alkaline solutions” value ([3]; alkaline solutions containing sodium hydroxide or sodium phosphate) of the same compound?
Answer: soluble in alkaline solutions

Question: What about the “solubility of topiramate in water” value ([3]; room temperature) of the same compound?
Answer: about 9.8 mg/ml
